Each structure is given as a SMILES string.

In one data set the test system is Proteus Mirabilis. Description: Promoting wave test (bio-wave model). The settings on record: final concentration of 0.5% on LB plate, 37° C. Type of data set: cell-based. From the text:
I. Promoting Wave Test of the Compound of Formula (I) 1.

For data set [1] the following is noted: in vivo. From the text: • 1. acute toxicity test: including tests of administrating medicine by oral, Intravenous injection and maximum limit amount for administration; • 2. Ames test; • 3. micronucleus test of bone marrow cell of mouse; • 4. abnormal sexual test for the sperm of mouse; • 5. abnormal aberrance test for the chromosin of mouse's testis; • 6. chronic lethal test; • 7. subchronic toxicity (feed for 90 days) test; • 8. traditional aberrance-inducing test;

For the compound `CC(=O)N[C@@H]1[C@@H](O)[C@H](O)[C@@H](CO)O[C@H]1O` [compound of formula (I), N-acetyl-D-glucosamine], the “promoting wave function (concentric ring pattern compared with control)” value with Proteus Mirabilis is “there were also many fine waves on each ring emerged”. Further, in data set [1], the “acute test dosage relative to the injection dosage for human being” value is reported as 300 times and the “dosage at which acute toxicosis reaction had not appeared” value is given as “more than 2 g/kg”.

Source of the values: patent US7037904B2, “Use of N-acetyl-D-glucosamine in the manufacture of pharmaceutical useful for suppressing side-effect of radiotherapy and chemotherapy” (Third Military Medical University, Chinese People's …, priority 2001, dated 2006).
